Measurements reported in patent US20020028929A1, “Estradiol derivative and immunoassay using the same” (priority 2000, published 2002).

Tested on: antiserum RY725 (Rabbit antiserum obtained in Example 1-(1))
Test: ELISA system for 17β-estradiol with biotinylated estradiol derivative 2 as labeled compound (standard curve, cross-reactivity test)
Type: binding
Settings: relative to 17β-estradiol (calculated as 100%), labeled compound biotinylated estradiol derivative 2
Description: (1) An ELISA system for 17β-estradiol using the derivative of the invention as a labeled compound was prepared in the following manner.
(a) 100 μL of a standard solution or a sample is pipetted into each well of the 96-well plate, followed by addition of 50 μL of the labeled compound (0.2 ng/mL) comprising the biotinylated estradiol derivative of the invention and 50 μL of the antiserum (×32000);
(b) the reaction is allowed to proceed at 4° C. overnight (for 18-20 hours);
(§1) (c) all the wells are washed with the wash solution 4 times;
(d) the reaction is allowed to proceed using a microplate shaker at room temperature for 2 hours;
(e) all the wells are washed with the wash solution 4 times;
(f) […] of the substrate is added;
(g) the reaction is allowed to proceed at room temperature for 20 minutes;
(h) 100 μL of the enzyme reaction stop solution is pipetted into each well;
(i) absorbance at 450 nm is measured with a microplate autoreader.
The specifity of the 17β-estradiol ELISA system was assessed in the following manner.
With `C[C@]12CC[C@@H]3c4ccc(O[C@@H]5O[C@H](C(=O)O)[C@@H](O)[C@H](O)[C@H]5O)cc4CC[C@H]3[C@@H]1CC[C@@H]2O` [β-Estradiol 3-(β-D-glucronide)] the “Cross-reactivity (%)” value was 37.44%.
With `C[C@]12CC[C@@H]3c4ccc(O)cc4CC[C@H]3[C@@H]1CC[C@@H]2O[C@@H]1O[C@H](C(=O)O)[C@@H](O)[C@H](O)[C@H]1O` [β-Estradiol 17-(β-D-glucronide)] the “Cross-reactivity (%)” value was 0.00%.
With `CC[C@H](c1ccc(O)cc1)[C@@H](CC)c1ccc(O)cc1` [Hexestrol] the “Cross-reactivity (%)” value was 0.00%.
In the case of `C#C[C@]1(O)CC[C@H]2[C@@H]3CCc4cc(O)ccc4[C@H]3CC[C@@]21C` [Ethynylestradiol], the “Cross-reactivity (%)” value is reported as 0.03%.
With `CC12CCC3c4ccc(OC5OC(C(=O)O)C(O)C(O)C5O)cc4CCC3C1CCC2OS(=O)(=O)O` (stereo not drawn) [β-Estradiol 3-glucronide 17-sulfate] the “Cross-reactivity (%)” value was 0.02%.
In the case of β-Estradiol 3-sulfate, the “Cross-reactivity (%)” value is reported as 11.05%.
For `C[C@]12CCC3c4ccc(OS(=O)(=O)O)cc4CCC3C1CC[C@@H]2OS(=O)(=O)O` (stereo partly drawn) [β-Estradiol 3,7-disulfate], the “Cross-reactivity (%)” value was 0.00%.
With `COc1cc2c(cc1O)CC[C@@H]1[C@@H]2CC[C@]2(C)[C@@H](O)CC[C@@H]12` [2-Methoxyestradiol] the “Cross-reactivity (%)” value was 1.79%.
For `CC(=O)[C@H]1CC[C@H]2[C@@H]3CCC4=CC(=O)CC[C@]4(C)[C@H]3CC[C@]12C` [Progesteron], the “Cross-reactivity (%)” value was 0.01%.
For `C[C@]12CC[C@@H]3c4ccc(O)cc4CC[C@H]3[C@@H]1C[C@@H](O)[C@@H]2O` [Estriol], the “Cross-reactivity (%)” value was 0.16%.
For `C[C@]12CC[C@@H]3c4ccc(O)cc4CC[C@H]3[C@@H]1CC[C@@H]2O` [17β-Estradiol], the “Cross-reactivity (%)” value was 100.00%.
For `C[C@]12CC[C@H]3[C@@H](CCC4=CC(=O)CC[C@@]43C)[C@@H]1CC[C@@H]2O` [Testosterone], the “Cross-reactivity (%)” value was 0.28%.
With `C#C[C@]1(O)CC[C@H]2[C@@H]3CCc4cc(OC)ccc4[C@H]3CC[C@@]21C` [Mestranol] the “Cross-reactivity (%)” value was 0.14%.
For `C[C@]12CCC(=O)C=C1CC[C@@H]1[C@@H]2[C@@H](O)C[C@]2(C=O)[C@@H](C(=O)CO)CC[C@@H]12` [d-ALDOSTERONE], the “Cross-reactivity (%)” value was 0.00%.
With `C[C@]12CC[C@@H]3c4ccc(OS(=O)(=O)O)cc4CC[C@H]3[C@@H]1CC[C@@H]2O[C@@H]1O[C@H](C(=O)O)[C@@H](O)[C@H](O)[C@H]1O` [β-Estradiol 3-sulfate 17-glucronide] the “Cross-reactivity (%)” value was 0.00%.
In the case of `C[C@]12CCC(=O)C=C1CC[C@@H]1[C@@H]2CC[C@]2(C)C(=O)CC[C@@H]12` [(+)-4-Androsteron-3,17-dione], the “Cross-reactivity (%)” value is reported as 0.02%.

Tested on: antiserum RY469 (Rabbit antiserum prepared in Example 1-(2))
Test: ELISA system for estrone with biotinylated estradiol derivative 1 as labeled compound (standard curve, cross-reactivity test)
Type: binding
Settings: relative to estrone (calculated as 100%), labeled compound biotinylated estradiol derivative 1
Description: (2) An ELISA system for estrone using the derivative of the invention as a labeled compound was designed in the following manner.
Biotinylated estradiol derivative 1 of the invention
RY469 (Rabbit antiserum prepared in Example 1-(2)
(a) 100 μL of a standard solution or a sample is pipetted into each well of the 96-well plate, followed by addition of 50 μL of the labeled compound (0.25 ng/mL) comprising the biotinylated estradiol derivative of the invention and 50 μL of the antiserum (×32000);
(b) the reaction is allowed to proceed using a microplate shaker at room temperature for 5 hours;
as §1
(d) 100 μL of the HRP-labeled reagent (×5000) is added;
(e) the reaction is allowed to proceed using a microplate shaker at room temperature for 1 hour;
(f) all the wells are washed with the wash solution 4 times;
(g) 100 μL of the substrate is added;
(h) the reaction is allowed to proceed at 20° C. for 20 minutes;
(i) 100 μL of the enzyme reaction stop solution is pipetted into each well;
(j) absorbance at 450 nm is measured with a microplate autoreader.
The specifity of the estrone ELISA system was assessed in the following manner.
ELISA was repeated in a similar manner as in Example 3-(2) except that the estrogens shown in Table 2 were used in place of the standard estrone (Sigma Co.). The standard curve of each of the estrogens was obtained (see FIG. 6).
With `O=C(O[C@@H]1Cc2c(O)cc(O)cc2O[C@@H]1c1ccc(O)c(O)c1)c1cc(O)c(O)c(O)c1` [Epicatechin gallate] the “Cross-reactivity (%)” value was under 0.001%.
In the case of `CC(C)(c1ccc(O)cc1)c1ccc(O)cc1` [Bisphenol A], the “Cross-reactivity (%)” value is reported as under 0.001%.
With `C[C@]12CC[C@@H]3c4ccc(O)cc4CC[C@H]3[C@@H]1C[C@@H](O)[C@@H]2O` [Estriol] the “Cross-reactivity (%)” value was 0.15%.
In the case of Catechin, the “Cross-reactivity (%)” value is reported as under 0.001%.
For `C[C@]12CC[C@@H]3c4ccc(O)cc4CC[C@H]3[C@@H]1CC[C@@H]2O` [17β-Estradiol], the “Cross-reactivity (%)” value was 33.33%.
With Nonylphenol the “Cross-reactivity (%)” value was under 0.001%.

Tested on: not given
Test: not given
Settings: general statement on prior art; cited from earlier work
In the case of `O=C(O)CCCC[C@@H]1SC[C@@H]2NC(=O)N[C@@H]21` [biotin], the solubility in water is given as “minimally soluble in water”.
